Laboratory results taken from ChEMBL document CHEMBL4270488, “Antibacterial Compounds from Marine Bacteria, 2010-2015” (J Nat Prod, 2017).
Converted amounts (≈) assume the structure as drawn. Where a SMILES comes first, the peptide text is derived from it. The star is where a group is joined. Tridecanoyl(3R-OH,11-Me) = CCC(C)CCCCCCC[C@@H](O)CC(=O)*

Key:
Bacillus thuringiensis = assay: Antibacterial activity against Bacillus thuringiensis SCSIO BT01; assay type: functional
Bacillus subtilis [1] = assay: Antibacterial activity against Bacillus subtilis SCSIO BS01; assay type: functional
Staphylococcus aureus [2] = assay: Antibacterial activity against Staphylococcus aureus ATCC 29213; assay type: functional
Bacillus subtilis [3] = assay: Antibacterial activity against Bacillus subtilis by broth dilution assay; assay type: functional
Escherichia coli [4] = assay: Antibacterial activity against Escherichia coli by broth dilution assay; assay type: functional
Staphylococcus aureus [5] = assay: Antibacterial activity against Staphylococcus aureus by broth dilution assay; assay type: functional
Staphylococcus aureus [6] = assay: Antibacterial activity against Staphylococcus aureus incubated for 18 hrs; assay type: functional
Pseudomonas aeruginosa = assay: Antibacterial activity against Pseudomonas aeruginosa by broth dilution assay; assay type: functional
Salmonella typhi = assay: Antibacterial activity against Salmonella typhi by broth dilution assay; assay type: functional, Salmonella enterica subsp. enterica serovar Typhi; conditions: Salmonella enterica
Staphylococcus aureus [7] = assay: Antibacterial activity against methicillin-resistant Staphylococcus aureus; assay type: functional
Proteus vulgaris = assay: Antibacterial activity against Proteus vulgaris by serial dilution assay; assay type: functional
Micrococcus luteus = assay: Antibacterial activity against Micrococcus luteus by serial dilution assay; assay type: functional
Escherichia coli [8] = assay: Antibacterial activity against Escherichia coli by serial dilution assay; assay type: functional
Bacillus subtilis [9] = assay: Antibacterial activity against Bacillus subtilis by serial dilution assay; assay type: functional
Enterococcus faecalis = assay: Antibacterial activity against Enterococcus faecalis ATCC 29212; assay type: functional

## C/C(C=O)=C/CC/C(C)=C/C[C@@]12OC(C)(C)[C@H](Cl)C[C@]1(Cl)C(=O)c1c(O)cc(O)cc1C2=O
Bacillus thuringiensis
  MIC: 4 to 32 µg/mL (≈ 8.07 to 64.6 µM)
Bacillus subtilis [1]
  MIC: 4 to 32 µg/mL (≈ 8.07 to 64.6 µM)
Staphylococcus aureus [2]
  MIC: 4 to 32 µg/mL (≈ 8.07 to 64.6 µM)

## C=C1CC[C@H](Br)C(C)(C)[C@@H]1C[C@@]12OC(C)(C)[C@H](Cl)C[C@]1(Cl)C(=O)c1c(O)cc(O)cc1C2=O
Bacillus thuringiensis
  MIC: ≤ 0.5 µg/mL
Bacillus subtilis [1]
  MIC: ≤ 0.5 µg/mL
Staphylococcus aureus [2]
  MIC: ≤ 0.5 µg/mL

## COC(=O)CCC(=O)O[C@@H]1/C=C/C=C\C[C@H](O)C[C@@H](O)/C=C/C=C/CCC[C@@H](C)OC(=O)/C=C\C=C\C1
Bacillus subtilis [3]
  MIC: ≥ 16 µg/mL
Escherichia coli [4]
  MIC: ≥ 16 µg/mL

## C[C@@H]1CCC/C=C/C=C/[C@H](O)C[C@@H](O)[C@H](O)/C=C\C=C\[C@@H](O)C/C=C/C=C\C(=O)O1
Bacillus subtilis [3]
  MIC: 100 µg/mL (≈ 239 µM)
Staphylococcus aureus [5]
  MIC: 0.1 µg/mL (≈ 0.239 µM)
Escherichia coli [4]
  MIC: 0.3 µg/mL (≈ 0.717 µM)

## COC(=O)C[C@H](O)C[C@@H](O)C[C@H](O)/C=C/C=C/CCC[C@@H](C)O
Bacillus subtilis [3]
  MIC: ≥ 16 µg/mL
Escherichia coli [4]
  MIC: ≥ 16 µg/mL

## C[C@@H]1O[C@](C)(C(=O)O)O[C@H]1/C=C/C=C/C=C/C(=O)O[C@H]1CC[C@H](c2ccc3c(c2O)C(=O)c2cc(O)c4c(c2C3=O)C(=O)[C@H](O)[C@](C)(O)C4)O[C@@H]1C
Staphylococcus aureus [6]
  MIC: 2 to 6 µg/mL (≈ 2.78 to 8.35 µM)

## C[C@@H]1CCC/C=C/C=C/[C@H](O)C[C@@H](O)C[C@@H]2O[C@@H]2/C=C/[C@@H](O)C/C=C/C=C\C(=O)O1 [GAGEOMACROLACTIN 1]
Bacillus subtilis [3]
  MIC: 0.01 µg/mL (≈ 0.0239 µM)
Staphylococcus aureus [5]
  MIC: 0.01 µg/mL (≈ 0.0239 µM)
Pseudomonas aeruginosa
  MIC: 0.01 µg/mL (≈ 0.0239 µM)
Escherichia coli [4]
  MIC: 0.02 µg/mL (≈ 0.0478 µM)
Salmonella typhi
  MIC: 0.02 µg/mL (≈ 0.0478 µM)

## CC(C)=CCC/C(C)=C/C[C@@]12OC(C)(C)[C@H](Cl)C=C1C(=O)c1c(O)cc(O)cc1C2=O
Bacillus thuringiensis
  MIC: 4 to 32 µg/mL (≈ 8.99 to 71.9 µM)
Bacillus subtilis [1]
  MIC: 4 to 32 µg/mL (≈ 8.99 to 71.9 µM)
Staphylococcus aureus [2]
  MIC: 4 to 32 µg/mL (≈ 8.99 to 71.9 µM)

## COC(=O)[C@@]1(C)O[C@@H](C)[C@H](/C=C/C=C/C=C/C(=O)O[C@H]2CC[C@H](c3ccc4c(c3O)C(=O)C3=C(C4=O)[C@@]4(O)C(=O)[C@H](O)[C@](C)(O)C[C@@]4(O)C=C3)O[C@@H]2C)O1
Staphylococcus aureus [6]
  MIC: 2 to 6 µg/mL (≈ 2.66 to 7.99 µM)

## CC(=O)O[C@H]1[C@@H](O)[C@H](Oc2ccc3c(O)c(NC(=O)c4cc(O)c(O)c(CC=C(C)C)c4)c(=O)oc3c2C)OC(C)(C)[C@@H]1O
Staphylococcus aureus [7]
  MIC: > 64 µg/mL

## O=C1N/C(=N\O)C(c2ccc(O)c([N+](=O)[O-])c2)=C1c1ccc(O)c([N+](=O)[O-])c1
Proteus vulgaris
  MIC: 3 to 25 µg/mL (≈ 7.77 to 64.7 µM)
Micrococcus luteus
  MIC: 3 to 25 µg/mL (≈ 7.77 to 64.7 µM)
Escherichia coli [8]
  MIC: 3 to 25 µg/mL (≈ 7.77 to 64.7 µM)
Bacillus subtilis [9]
  MIC: 3 to 25 µg/mL (≈ 7.77 to 64.7 µM)

## CC[C@H]1[C@@H]2C=C[C@@H]3[C@H]4/C=C/CC(=O)NCCC[C@@H]5NC(=O)C(=C5O)C(=O)/C=C/[C@@H]4C[C@@H]3[C@H]2C[C@H]1C
Staphylococcus aureus [7]
  MIC: 1 to 4 µg/mL (≈ 2.09 to 8.36 µM)

## CO[C@@H]1[C@@H](OC(N)=O)[C@@H](O)[C@H](Oc2ccc3c(O)c(NC(=O)c4ccc(O)c(CC=C(C)C)c4)c(=O)oc3c2C)OC1(C)C [NOVOBIOCIN]
Staphylococcus aureus [7]
  MIC: 0.25 µg/mL (≈ 0.408 µM)

## CC(C)=CCc1cc(C(=O)Nc2c(O)c3ccc(O[C@@H]4OC(C)(C)[C@H](O)[C@@H](OC(N)=O)[C@H]4O)c(C)c3oc2=O)ccc1O
Staphylococcus aureus [7]
  MIC: 8 to 16 µg/mL (≈ 13.4 to 26.7 µM)

## C[C@@H]1CCCCC/C=C/[C@H](O)C[C@@H](O)C/C=C\C=C\[C@@H](O[C@@H]2O[C@H](CO)[C@@H](O)[C@H](O)[C@H]2O)C/C=C/C=C\C(=O)O1
Bacillus subtilis [3]
  MIC: 0.06 µg/mL (≈ 0.106 µM)
Staphylococcus aureus [5]
  MIC: 0.06 µg/mL (≈ 0.106 µM)
Pseudomonas aeruginosa
  MIC: 0.03 µg/mL (≈ 0.0529 µM)
Escherichia coli [4]
  MIC: 0.06 µg/mL (≈ 0.106 µM)
Salmonella typhi
  MIC: 0.03 µg/mL (≈ 0.0529 µM)

## O=C1NC(=O)C(c2ccc(O)c([N+](=O)[O-])c2)=C1c1ccc(O)c([N+](=O)[O-])c1
Proteus vulgaris
  MIC: 25 to 100 µg/mL (≈ 67.3 to 269 µM)
Micrococcus luteus
  MIC: 25 to 100 µg/mL (≈ 67.3 to 269 µM)
Escherichia coli [8]
  MIC: 25 to 100 µg/mL (≈ 67.3 to 269 µM)
Bacillus subtilis [9]
  MIC: 25 to 100 µg/mL (≈ 67.3 to 269 µM)

## Cc1cc(=O)[nH]c2c1C(=O)c1c(C)cc(=O)n(C)c1C2=O
Enterococcus faecalis
  MIC: 1 to 4 µg/mL (≈ 3.52 to 14.1 µM)
Bacillus thuringiensis
  MIC: 1 to 4 µg/mL (≈ 3.52 to 14.1 µM)
Staphylococcus aureus [2]
  MIC: 1 to 4 µg/mL (≈ 3.52 to 14.1 µM)

## C[C@@H]1CCC/C=C/C=C/[C@H](O)C[C@@H](O)[C@H](O)/C=C\C=C\[C@H](O)C/C=C/C=C\C(=O)O1
Bacillus subtilis [3]
  MIC: 0.1 µg/mL (≈ 0.239 µM)
Staphylococcus aureus [5]
  MIC: 0.1 µg/mL (≈ 0.239 µM)
Escherichia coli [4]
  MIC: 0.1 µg/mL (≈ 0.239 µM)

## C[C@@H]1O[C@](C)(C(=O)O)O[C@H]1/C=C/C=C/C=C/C(=O)O[C@H]1CC[C@H](c2ccc3c(c2O)C(=O)c2ccc4c(c2C3=O)C(=O)[C@H](O)[C@](C)(O)C4)O[C@@H]1C
Staphylococcus aureus [6]
  MIC: 2 to 6 µg/mL (≈ 2.85 to 8.54 µM)

## C[C@@H]1CCC[C@@H](O)/C=C/[C@@H]2O[C@@H]2C[C@@H](O)C/C=C\C=C\[C@@H](O)C/C=C/C=C\C(=O)O1
Bacillus subtilis [3]
  MIC: 16 µg/mL (≈ 38.2 µM)
Escherichia coli [4]
  MIC: 16 µg/mL (≈ 38.2 µM)

## CCC(C)CCCCCCC[C@@H](O)CC(=O)N[C@@H](CCC(=O)OC)C(=O)N[C@@H](CC(C)C)C(=O)N[C@@H](CC(C)C)C(=O)N[C@@H](CC(C)C)C(=O)O (stereo partly drawn) ({Tridecanoyl(3R-OH,11-Me)}-E(OMe)LLL-OH)
Bacillus subtilis [3]
  MIC: 0.01 µg/mL (≈ 0.0138 µM)
Staphylococcus aureus [5]
  MIC: 0.03 µg/mL (≈ 0.0413 µM)
Pseudomonas aeruginosa
  MIC: 0.03 µg/mL (≈ 0.0413 µM)
Salmonella typhi
  MIC: 0.01 µg/mL (≈ 0.0138 µM)

## CO[C@@H]1/C=C/[C@H](O)C[C@@H](O)C/C=C\C=C\[C@@H](O)C/C=C/C=C\C(=O)O[C@H](C)CCC[C@@H]1O
Bacillus subtilis [3]
  MIC: ≥ 16 µg/mL
Escherichia coli [4]
  MIC: ≥ 16 µg/mL

## O=C1NC(=O)C(c2ccc(O)c([N+](=O)[O-])c2)=C1c1ccccc1
Proteus vulgaris
  MIC: 25 to 100 µg/mL (≈ 80.6 to 322 µM)
Micrococcus luteus
  MIC: 25 to 100 µg/mL (≈ 80.6 to 322 µM)
Escherichia coli [8]
  MIC: 25 to 100 µg/mL (≈ 80.6 to 322 µM)
Bacillus subtilis [9]
  MIC: 25 to 100 µg/mL (≈ 80.6 to 322 µM)

## C[C@@H](O)CCC/C=C/C=C/[C@H](O)C[C@@H](O)C/C=C\C=C\[C@@H](O)C/C=C/C=C\C(=O)O
Bacillus subtilis [3]
  MIC: 8 µg/mL (≈ 19 µM)
Escherichia coli [4]
  MIC: 8 µg/mL (≈ 19 µM)
